Results from PubChem BioAssay AID504680 (Sanford-Burnham Center for Chemical Genomics, 2011).
Calls of active or inactive are those of the source.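 The calls were made as follows: active = IC50 below 100 µM in the TR-FRET assay, unless also active in the caspase-3 counter assay; inactive = the rest, including compounds also active in caspase-3.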

The compounds below were run against Caspase-3 (Homo sapiens) (UniProt P42574) (assay: inhibition of recombinant caspase-3 activity – biochemical, luminescence, Caspase-Glo 3/7, counter-screen for UBC13 polyubiquitin inhibitor project, SAR follow-up (AID 504680)). Conditions: recombinant caspase-3, Caspase-Glo luminescence, 60 min.
Chain of Caspase-3 (Homo sapiens) (P42574 whole entry, looked up): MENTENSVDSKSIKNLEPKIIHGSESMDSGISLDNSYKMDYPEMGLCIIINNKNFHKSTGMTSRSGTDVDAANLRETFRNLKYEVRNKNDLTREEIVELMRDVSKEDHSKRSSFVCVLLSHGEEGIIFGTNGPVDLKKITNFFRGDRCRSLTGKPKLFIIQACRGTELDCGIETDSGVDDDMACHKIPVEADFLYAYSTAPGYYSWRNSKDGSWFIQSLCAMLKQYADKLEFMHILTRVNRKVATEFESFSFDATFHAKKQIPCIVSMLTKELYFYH

Compound | IC50
Cc1ccccc1OCC(O)CN1CCN(CCN2C(=O)c3cccc4cccc(c34)C2=O)CC1 (configuration not stated) | > 100 µM (inactive)
CC(NC(=O)CCCCCN1C(=O)c2ccccc2C1=O)c1nc(-c2ccccc2)no1 (configuration not stated) | > 100 µM (inactive)
Cc1ccc(NC(=O)C2CCN(c3ncnc4c3nc3n4CCCCC3)CC2)cc1Cl | > 100 µM (inactive)
O=C(NCC1CCN(Cc2ccc(Cl)cc2)CC1)C1CCCN(c2ncnc3c2nc2n3CCCCC2)C1 (configuration not stated) | > 100 µM (inactive)
O=C(CCCCn1c(=O)c2ccccc2n(Cc2ccccc2)c1=O)NC1CCN(Cc2ccccc2)CC1 | > 100 µM (inactive)
Cc1ccccc1CN1CCC(CNC(=O)C2CCCN(c3ncnc4c3nc3n4CCCCC3)C2)CC1 (configuration not stated) | > 100 µM (inactive)
O=C1c2cccc3cccc(c23)C(=O)N1CCN1CCN(CC(O)COCc2ccc(Cl)cc2)CC1 (configuration not stated) | > 100 µM (inactive)
O=C(Nc1ccc(F)c(Cl)c1)C1CCN(c2ncnc3c2nc2n3CCCCC2)CC1 | > 100 µM (inactive)
COc1ccc(-c2oc3ncnc(N)c3c2-c2ccccc2)cc1 | > 100 µM (inactive)
O=C(NCCCN1CCN(c2ccccc2)CC1)C1CCCN(c2ncnc3c2nc2n3CCCCC2)C1 (configuration not stated) | > 100 µM (inactive)
Cc1cccc(C)c1NC(=O)Cn1c(=O)n(CCCC(=O)NC2CCN(Cc3ccccc3)CC2)c(=O)c2ccccc21 | > 100 µM (inactive)
Cc1cc(C)c2sc(N(CCCN(C)C)C(=O)c3ccc(S(=O)(=O)N(C)Cc4ccccc4)cc3)nc2c1 | > 100 µM (inactive)
COc1cc2nc(N(CCCN(C)C)C(=O)c3ccc(S(=O)(=O)N4CCc5ccccc5C4)cc3)sc2cc1OC | > 100 µM (inactive)
Cc1ccc2nc(N(CCCN(C)C)C(=O)c3ccc4c(c3)CCCC4)sc2c1 | > 100 µM (inactive)
O=C(CCCCCN1C(=O)c2ccccc2C1=O)NCc1ccco1 | > 100 µM (inactive)
O=C(CCCCCN1C(=O)c2ccccc2C1=O)NCCc1nc2ccccc2[nH]1 | > 100 µM (inactive)
CC1CCCCN1C(=O)C1CCN(c2ncnc3c2nc2n3CCCCC2)CC1 (configuration not stated) | > 100 µM (inactive)
O=C(CCCn1c(=O)c2ccccc2n(Cc2ccccc2F)c1=O)NC1CCN(Cc2ccccc2)CC1 | > 100 µM (inactive)
Cc1cc(C)cc(OCCNC(=O)CCCCCN2C(=O)c3ccccc3C2=O)c1 | > 100 µM (inactive)
O=C1c2cccc3cccc(c23)C(=O)N1CCN1CCN(CC(O)COc2ccc(C3CCCCC3)cc2)CC1 (configuration not stated) | > 100 µM (inactive)
CN(C)CCCN(C(=O)c1ccc(S(=O)(=O)N2CCCCC2)cc1)c1nc2cc3c(cc2s1)OCO3 | > 100 µM (inactive)

Compound | IC50
CCOc1cccc2sc(N(CCCN(C)C)C(=O)c3ccc(S(=O)(=O)N(CC)Cc4ccccc4)cc3)nc12 | > 100 µM (inactive)
CC(C)(C)c1ccc(OCC(O)CN2CCN(CCN3C(=O)c4cccc5cccc(c45)C3=O)CC2)cc1 (configuration not stated) | > 100 µM (inactive)
CCCOC(=O)c1ccc(NC(=O)CCCCCN2C(=O)c3ccccc3C2=O)cc1 | > 100 µM (inactive)
CC(=O)c1ccc(OCC(O)CN2CCN(CCN3C(=O)c4cccc5cccc(c45)C3=O)CC2)cc1 (configuration not stated) | > 100 µM (inactive)
O=C(CCCCCN1C(=O)c2ccccc2C1=O)NCc1ccccc1 | > 100 µM (inactive)
CCN(Cc1ccccc1)S(=O)(=O)c1ccc(C(=O)N(CCCN(C)C)c2nc3cc4c(cc3s2)OCO4)cc1 | > 100 µM (inactive)
CCOc1ccc2nc(N(CCCN(C)C)C(=O)c3ccc(C(=O)c4ccccc4)cc3)sc2c1 | > 100 µM (inactive)
CN1CCN(CCCNC(=O)c2ccc(/C=C3\Oc4ccccc4N(Cc4ccc(Cl)cc4)C3=O)cc2)CC1 | > 100 µM (inactive)
Cc1c(NC(=O)CCCN2C(=O)c3cccc4cccc(c34)C2=O)c(=O)n(-c2ccccc2)n1C | > 100 µM (inactive)
O=C(CCCCCN1C(=O)c2ccccc2C1=O)N1CCN(c2ccc([N+](=O)[O-])cc2)CC1 | > 100 µM (inactive)
O=C(NCCCN1CCN(c2ccc(F)cc2)CC1)C1CCCN(c2ncnc3c2nc2n3CCCCC2)C1 (configuration not stated) | > 100 µM (inactive)
Cc1ccc(C)c(CN2CCC(CNC(=O)C3CCCN(c4ncnc5c4nc4n5CCCCC4)C3)CC2)c1 (configuration not stated) | > 100 µM (inactive)
CCN(Cc1ccccc1)S(=O)(=O)c1ccc(C(=O)N(CCCN(C)C)c2nc3cc4c(cc3s2)OCCO4)cc1 | > 100 µM (inactive)
O=C(CCCCCN1C(=O)c2ccccc2C1=O)NCc1ccccn1 | > 100 µM (inactive)
O=C(CCCCCN1C(=O)c2cccc3cccc(c23)C1=O)NCc1cccnc1 | > 100 µM (inactive)
CC(NC(=O)CCCCCN1C(=O)c2cccc([N+](=O)[O-])c2C1=O)c1ccccc1 (configuration not stated) | > 100 µM (inactive)
CC1CC(C)CN(C(=O)C2CCN(c3ncnc4c3nc3n4CCCCC3)CC2)C1 (configuration not stated) | > 100 µM (inactive)
CCCN1CCN(C(=O)C2CCN(c3ncnc4c3nc3n4CCCCC3)CC2)CC1 | > 100 µM (inactive)
CN(CCNC(=O)C1CCN(c2ncnc3c2nc2n3CCCCC2)CC1)Cc1ccccc1 | > 100 µM (inactive)
O=C(NCC1CCN(Cc2cccc(Cl)c2)CC1)C1CCCN(c2ncnc3c2nc2n3CCCCC2)C1 (configuration not stated) | > 100 µM (inactive)
O=C(C1CCN(c2ncnc3c2nc2n3CCCCC2)CC1)N1CCN(Cc2ccccc2)CC1 | > 100 µM (inactive)

Compound | IC50
COCCOC(=O)c1ccc(NC(=O)CCCCCN2C(=O)c3ccccc3C2=O)cc1 | > 100 µM (inactive)
COC(=O)c1ccc(OCC(O)CN2CCN(CCN3C(=O)c4cccc5cccc(c45)C3=O)CC2)cc1 (configuration not stated) | > 100 µM (inactive)
Cc1cc(OCC(O)CN2CCN(CCN3C(=O)c4cccc5cccc(c45)C3=O)CC2)ccc1C(C)C (configuration not stated) | > 100 µM (inactive)
CNCc1cc(Br)c(OCC(=O)Nc2ccccc2OC)c(OC)c1 | > 100 µM (inactive)
CN(C)CCCN(C(=O)c1ccc(S(=O)(=O)N2CCCCCC2)cc1)c1nc2cc3c(cc2s1)OCCO3 | > 100 µM (inactive)
CCCCN(CC)S(=O)(=O)c1ccc(C(=O)N(CCCN(C)C)c2nc3cc(C)cc(C)c3s2)cc1 | > 100 µM (inactive)
CN(C)CCCN(C(=O)c1ccc(C(=O)c2ccccc2)cc1)c1nc2cc3c(cc2s1)OCO3 | > 100 µM (inactive)
Cc1cccc(OCC(O)CN2CCN(CCN3C(=O)c4cccc5cccc(c45)C3=O)CC2)c1C (configuration not stated) | > 100 µM (inactive)
Cc1cc(NC(=O)Cn2c(=O)n(CCCCC(=O)NC3CCN(Cc4ccccc4)CC3)c(=O)c3ccccc32)n[nH]1 | > 100 µM (inactive)
O=C(C1CCN(c2ncnc3c2nc2n3CCCCC2)CC1)N1CCN(c2ccccn2)CC1 | > 100 µM (inactive)
O=C(NCC1CCN(Cc2ccccc2F)CC1)C1CCCN(c2ncnc3c2nc2n3CCCCC2)C1 (configuration not stated) | > 100 µM (inactive)
NNC(=O)c1ccc(CN2C(=O)c3cccc4cccc2c34)cc1 | > 100 µM (inactive)
O=C(CCCCCN1C(=O)c2ccccc2C1=O)Nc1nc(C2CC2)cs1 | > 100 µM (inactive)
O=C(CCCCCN1C(=O)c2cccc([N+](=O)[O-])c2C1=O)NCc1ccccc1 | > 100 µM (inactive)
CN(C)CCCN(C(=O)c1ccc(S(=O)(=O)N2CCCC2)cc1)c1nc2ccc(Br)cc2s1 | > 100 µM (inactive)
Cc1ccc(OCC(O)CN2CCN(CCN3C(=O)c4cccc5cccc(c45)C3=O)CC2)c(C)c1 (configuration not stated) | > 100 µM (inactive)
O=C(C1COc2ccccc2O1)N1CCN(CCN2C(=O)c3cccc4cccc(c34)C2=O)CC1 (configuration not stated) | > 100 µM (inactive)
O=C1c2cccc3cccc(c23)C(=O)N1CCN1CCN(CC(O)COc2ccccc2)CC1 (configuration not stated) | > 100 µM (inactive)
CC1CCCC(C)N1CCCNC(=O)C1CCCN(c2ncnc3c2nc2n3CCCCC2)C1 (configuration not stated) | > 100 µM (inactive)
CC1CN(S(=O)(=O)c2ccc(NC(=O)CCCCCN3C(=O)c4ccccc4C3=O)cc2)CC(C)O1 (configuration not stated) | > 100 µM (inactive)
O=C(CCCCn1c(=O)c2ccccc2n(Cc2ccccc2F)c1=O)NC1CCN(Cc2ccccc2)CC1 | > 100 µM (inactive)

Compound | IC50
CC(=O)Nc1ccc(OCC(O)CN2CCN(CCN3C(=O)c4cccc5cccc(c45)C3=O)CC2)cc1 (configuration not stated) | > 100 µM (inactive)
Cc1[nH]c2c(Cl)c(Cl)ccc2c1CCNC(=O)CCCCCN1C(=O)c2ccccc2C1=O | > 100 µM (inactive)
CCCCOC(=O)c1cccc(NC(=O)CCCCCN2C(=O)c3ccccc3C2=O)c1 | > 100 µM (inactive)
O=C1c2cccc3cccc(c23)C(=O)N1CCN1CCN(CC(O)COc2ccc(Cl)cc2)CC1 (configuration not stated) | > 100 µM (inactive)
CN(C)CCCN(C(=O)c1ccc(S(=O)(=O)N(C)Cc2ccccc2)cc1)c1nc2cc3c(cc2s1)OCO3 | > 100 µM (inactive)
O=C1c2cccc3cccc(c23)C(=O)N1CCN1CCN(CC(O)COc2ccc3ccccc3c2)CC1 (configuration not stated) | > 100 µM (inactive)
COc1ccc(OC)c2sc(N(CCCN(C)C)C(=O)c3ccc(S(=O)(=O)N4CCc5ccccc5C4)cc3)nc12 | > 100 µM (inactive)
O=C(C1CCN(c2ncnc3c2nc2n3CCCCC2)CC1)N1CCC(Cc2ccccc2)CC1 | > 100 µM (inactive)
O=C(c1ccc(S(=O)(=O)N2CCCC2)cc1)N1CCC(CN2C(=O)c3cccc4cccc(c34)C2=O)CC1 | > 100 µM (inactive)
O=C1c2cccc3cccc(c23)C(=O)N1CC1CCN(CC(O)COCc2ccc3c(c2)OCO3)CC1 (configuration not stated) | > 100 µM (inactive)
O=C(CCCn1c(=O)c2ccccc2n(Cc2cccc(F)c2)c1=O)NC1CCN(Cc2ccccc2)CC1 | > 100 µM (inactive)
CCC1CCCCN1CCCNC(=O)C1CCN(c2ncnc3c2nc2n3CCCCC2)CC1 (configuration not stated) | > 100 µM (inactive)
CCOc1ccc2nc(N(CCCN(C)C)C(=O)c3ccc(S(=O)(=O)N4CCc5ccccc5C4)cc3)sc2c1 | > 100 µM (inactive)
COc1ccc(CCNC(=O)CCCCCN2C(=O)c3ccccc3C2=O)cc1 | > 100 µM (inactive)
Cc1cc(C)c2sc(N(CCCN(C)C)C(=O)c3ccc(S(=O)(=O)N4CCc5ccccc5C4)cc3)nc2c1 | > 100 µM (inactive)
CCOc1cccc2sc(N(CCCN(C)C)C(=O)c3ccc(S(=O)(=O)N(C)Cc4ccccc4)cc3)nc12 | > 100 µM (inactive)
CCOC(=O)c1c(NC(=O)COc2ccccc2C#N)sc2c1CC(C)(C)NC2(C)C | > 100 µM (inactive)
O=C(C1CCN(c2ncnc3c2nc2n3CCCCC2)CC1)N1CCOCC1 | > 100 µM (inactive)
COc1ccc(NC(=O)CCCCCN2C(=O)c3cccc([N+](=O)[O-])c3C2=O)cc1 | > 100 µM (inactive)
